The text below walks through data of US11420947B2, “(S)-n-hydroxy-2-(2-(4-methoxyphenyl)butanamido)thiazole-5-carboxamide and pharmaceutically acceptable salts thereof” (TRANSLATIONAL DRUG DEVELOPMENT, LLC, priority 2018, dated 2022).

Common to all, as to format: biochemical
For test [1], the target named is T1, HDAC1 (Homo sapiens, UniProt Q13547).
T1 construct: purchased BPS 50051
The test can be described thus: Inhibition of HDAC enzymes, 12-point concentration-response. On the procedure:
(§1) Compounds were tested in a 12-point concentration-response format against 11 HDAC enzymes as outlined in Table 2A. Test compounds were diluted in 100% DMSO using 3-fold dilution steps. The final compound concentration in the assay ranged from 100 μM to 0.565 nM or as requested. Compounds were tested in a single well for each dilution, and the final concentration of DMSO in all assays was kept at 1%. Reference compounds were tested in an identical manner.

Test [2] deals with T2, HDAC10 (Homo sapiens, UniProt Q969S8).
T2 construct: made in house
T2 sequence (Q969S8 1-669): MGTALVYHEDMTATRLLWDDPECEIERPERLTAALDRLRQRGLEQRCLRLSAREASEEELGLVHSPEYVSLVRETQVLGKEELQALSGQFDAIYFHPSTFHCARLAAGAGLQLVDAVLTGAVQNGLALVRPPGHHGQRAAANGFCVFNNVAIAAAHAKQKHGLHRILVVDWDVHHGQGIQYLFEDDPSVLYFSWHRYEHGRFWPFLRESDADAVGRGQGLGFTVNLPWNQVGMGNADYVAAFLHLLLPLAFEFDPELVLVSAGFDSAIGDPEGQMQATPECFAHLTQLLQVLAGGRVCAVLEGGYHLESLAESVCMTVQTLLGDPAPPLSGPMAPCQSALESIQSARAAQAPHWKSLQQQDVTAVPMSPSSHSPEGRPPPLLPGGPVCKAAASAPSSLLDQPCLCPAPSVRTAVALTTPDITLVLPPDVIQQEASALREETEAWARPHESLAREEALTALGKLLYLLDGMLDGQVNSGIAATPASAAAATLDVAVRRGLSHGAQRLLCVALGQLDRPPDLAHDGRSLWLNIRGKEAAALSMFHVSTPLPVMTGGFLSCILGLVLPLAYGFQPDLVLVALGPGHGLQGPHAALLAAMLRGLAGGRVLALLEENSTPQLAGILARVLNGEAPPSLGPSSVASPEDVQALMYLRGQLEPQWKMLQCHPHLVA
The description is as above. The note with it: for IC50: HDAC10. Here is the method: as §1

For test [3], the target named is T3, HDAC11 (Homo sapiens, UniProt Q96DB2).
T3 construct: made in house
The test is described as above. Here is the method:
as §1

Test [4] has as its target T4, HDAC2 (Homo sapiens, UniProt Q92769).
T4 construct: purchased BPS 50002
Described as above. On the procedure: as §1

The target in test [5] is T5, HDAC3 (Homo sapiens, UniProt O15379).
T5 construct: purchased BPS 50003
The description is as above. The note with it: for IC50: HDAC3. On the procedure: as §1

Test [6] concerns the target T6, HDAC5 (Homo sapiens, UniProt Q9UQL6).
T6 construct: purchased BPS 50045
The test is described as above. On the procedure: as §1

Test [7] deals with T7, HDAC7 (Homo sapiens, UniProt Q8WUI4).
T7 construct: made in house
The description is as above. On the procedure:
as §1

The target in test [8] is T8, HDAC8 (Homo sapiens, UniProt Q9BY41).
T8 construct: purchased BPS 50008
The description is as above. Here is the method: as §1

Test [9] concerns the target T9, HDAC6 (Homo sapiens, UniProt Q9UBN7).
T9 sequence (Q9UBN7 1-1215): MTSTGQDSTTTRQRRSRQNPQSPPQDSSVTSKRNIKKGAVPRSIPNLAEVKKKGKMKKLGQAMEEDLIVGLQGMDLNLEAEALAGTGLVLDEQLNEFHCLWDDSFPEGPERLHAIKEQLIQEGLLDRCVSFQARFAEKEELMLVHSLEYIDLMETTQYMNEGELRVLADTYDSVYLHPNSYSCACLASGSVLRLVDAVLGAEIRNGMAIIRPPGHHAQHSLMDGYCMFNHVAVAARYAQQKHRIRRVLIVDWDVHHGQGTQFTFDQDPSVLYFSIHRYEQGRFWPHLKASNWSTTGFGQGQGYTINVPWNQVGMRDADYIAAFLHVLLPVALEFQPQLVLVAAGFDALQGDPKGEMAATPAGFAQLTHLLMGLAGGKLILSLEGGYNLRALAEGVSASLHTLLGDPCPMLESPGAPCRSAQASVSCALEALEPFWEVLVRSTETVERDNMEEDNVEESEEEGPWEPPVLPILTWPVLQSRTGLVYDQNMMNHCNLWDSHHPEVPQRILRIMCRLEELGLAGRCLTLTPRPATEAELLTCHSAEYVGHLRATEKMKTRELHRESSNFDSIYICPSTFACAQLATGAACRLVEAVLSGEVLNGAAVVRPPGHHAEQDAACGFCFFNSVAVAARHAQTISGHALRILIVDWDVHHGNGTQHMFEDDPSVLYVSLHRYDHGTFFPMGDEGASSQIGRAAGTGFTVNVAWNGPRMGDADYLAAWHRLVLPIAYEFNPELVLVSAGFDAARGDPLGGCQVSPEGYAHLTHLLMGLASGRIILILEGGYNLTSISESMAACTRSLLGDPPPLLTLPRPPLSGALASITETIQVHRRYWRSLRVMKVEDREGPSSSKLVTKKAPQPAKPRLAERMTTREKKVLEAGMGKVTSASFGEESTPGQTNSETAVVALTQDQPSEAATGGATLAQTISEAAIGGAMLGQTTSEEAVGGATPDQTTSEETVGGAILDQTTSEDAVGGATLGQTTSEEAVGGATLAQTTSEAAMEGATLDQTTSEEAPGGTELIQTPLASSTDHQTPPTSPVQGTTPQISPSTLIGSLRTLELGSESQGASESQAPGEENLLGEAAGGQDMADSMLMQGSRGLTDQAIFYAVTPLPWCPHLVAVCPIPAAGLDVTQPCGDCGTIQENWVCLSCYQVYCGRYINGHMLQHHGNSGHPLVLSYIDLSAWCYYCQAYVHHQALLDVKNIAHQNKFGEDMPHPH
The test can be described thus: Determination of Koff kinetics against HDAC6 protein. The conditions noted are these: for residence time: 100 nM HDAC6 pre-incubated with 0.120 μM compound for 3 hr, diluted 200×, Ln(2)/Kobs, read-out: residence time for binding to HDAC6. Here is the method: The disassociation rate for #1a (FIG. 3) or #1b (FIG. 4) was determined by pre-incubating 100 nM HDAC6 protein with 0.120 μM compound #1a, #1b, or DMSO for 3 hr. After pre-incubation, the compound-enzyme complex was diluted (200×) into an assay buffer with substrate peptide. Progress curves for ˜8 hrs were observed using Labchip3000 instrument. Progress curve after pre-incubation with compound (blue) was fit with following equation: ((A+(Vs*x))+(((Vo−Vs)*(1−exp(((−1)*Kobs)*t)))/Kobs)), to determine observed rate of dissociation. Residence time was determined as Ln(2)/Kobs.

Test [10] deals with T9, HDAC6. The test can be described thus: Inhibition of HDAC enzymes, 12-point concentration-response. Also noted: made in house. The note with it: for IC50: HDAC6. On the procedure:
as §1

As a reminder, the IC50 is the point on the concentration scale where inhibition reaches its midpoint. High values mean a need for much substance, low ones inhibition by little substance.

SMILES strings stand for the structures. Some results are limits rather than exact numbers.

T5 sequence (O15379 whole entry): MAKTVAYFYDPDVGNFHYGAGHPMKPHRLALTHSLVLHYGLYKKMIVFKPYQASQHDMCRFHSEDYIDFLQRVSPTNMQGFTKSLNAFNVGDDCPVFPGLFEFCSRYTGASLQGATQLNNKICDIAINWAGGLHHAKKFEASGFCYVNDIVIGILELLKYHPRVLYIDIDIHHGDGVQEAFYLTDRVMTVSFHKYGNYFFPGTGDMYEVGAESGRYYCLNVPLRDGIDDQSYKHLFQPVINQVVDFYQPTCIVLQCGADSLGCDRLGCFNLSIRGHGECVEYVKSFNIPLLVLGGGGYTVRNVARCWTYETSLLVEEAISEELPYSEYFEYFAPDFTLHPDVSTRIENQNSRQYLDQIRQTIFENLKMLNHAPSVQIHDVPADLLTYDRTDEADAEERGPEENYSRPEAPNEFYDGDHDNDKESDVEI
T5 sequence (Q9Y618 395-489 partner limits assumed): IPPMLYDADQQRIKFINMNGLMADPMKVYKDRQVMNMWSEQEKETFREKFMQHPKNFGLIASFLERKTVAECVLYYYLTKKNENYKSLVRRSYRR
T8 sequence (Q9BY41 whole entry): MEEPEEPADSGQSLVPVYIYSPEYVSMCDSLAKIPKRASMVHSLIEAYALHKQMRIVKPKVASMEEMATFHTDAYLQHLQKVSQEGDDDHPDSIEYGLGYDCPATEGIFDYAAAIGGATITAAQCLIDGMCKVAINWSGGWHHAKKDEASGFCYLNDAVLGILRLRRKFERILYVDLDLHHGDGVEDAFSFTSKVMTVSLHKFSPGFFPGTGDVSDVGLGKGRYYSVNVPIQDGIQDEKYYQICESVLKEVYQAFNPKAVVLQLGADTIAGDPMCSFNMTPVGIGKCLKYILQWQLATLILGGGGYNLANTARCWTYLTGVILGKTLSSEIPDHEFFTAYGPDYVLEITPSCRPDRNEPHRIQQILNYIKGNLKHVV
T4 sequence (Q92769 whole entry): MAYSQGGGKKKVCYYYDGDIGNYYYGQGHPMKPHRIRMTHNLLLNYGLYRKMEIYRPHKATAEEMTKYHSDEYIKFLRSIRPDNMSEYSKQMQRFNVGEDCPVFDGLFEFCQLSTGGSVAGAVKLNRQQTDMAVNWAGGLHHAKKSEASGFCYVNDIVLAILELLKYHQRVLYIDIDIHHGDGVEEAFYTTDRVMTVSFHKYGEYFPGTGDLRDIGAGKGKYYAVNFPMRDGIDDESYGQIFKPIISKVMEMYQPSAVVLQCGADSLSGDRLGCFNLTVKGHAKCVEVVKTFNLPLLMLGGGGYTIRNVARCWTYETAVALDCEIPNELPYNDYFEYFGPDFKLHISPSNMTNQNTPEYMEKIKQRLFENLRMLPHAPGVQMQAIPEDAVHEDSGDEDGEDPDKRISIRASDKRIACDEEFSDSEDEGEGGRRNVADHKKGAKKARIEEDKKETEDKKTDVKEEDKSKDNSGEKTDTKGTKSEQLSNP
T1 sequence (Q13547 whole entry): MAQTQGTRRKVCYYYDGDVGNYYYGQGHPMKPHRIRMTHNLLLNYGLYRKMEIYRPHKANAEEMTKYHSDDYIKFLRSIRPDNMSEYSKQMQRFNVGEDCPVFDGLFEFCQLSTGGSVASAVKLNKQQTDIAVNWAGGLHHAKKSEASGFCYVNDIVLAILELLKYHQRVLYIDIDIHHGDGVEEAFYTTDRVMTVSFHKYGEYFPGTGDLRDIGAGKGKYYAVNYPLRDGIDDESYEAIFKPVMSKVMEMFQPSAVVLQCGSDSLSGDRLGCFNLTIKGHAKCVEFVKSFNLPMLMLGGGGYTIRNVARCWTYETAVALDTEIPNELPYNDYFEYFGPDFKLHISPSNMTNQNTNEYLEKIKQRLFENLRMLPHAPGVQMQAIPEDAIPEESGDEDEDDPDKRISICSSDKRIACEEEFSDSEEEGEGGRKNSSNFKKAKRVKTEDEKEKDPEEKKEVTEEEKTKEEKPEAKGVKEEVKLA
T3 sequence (Q96DB2 whole entry, species assumed): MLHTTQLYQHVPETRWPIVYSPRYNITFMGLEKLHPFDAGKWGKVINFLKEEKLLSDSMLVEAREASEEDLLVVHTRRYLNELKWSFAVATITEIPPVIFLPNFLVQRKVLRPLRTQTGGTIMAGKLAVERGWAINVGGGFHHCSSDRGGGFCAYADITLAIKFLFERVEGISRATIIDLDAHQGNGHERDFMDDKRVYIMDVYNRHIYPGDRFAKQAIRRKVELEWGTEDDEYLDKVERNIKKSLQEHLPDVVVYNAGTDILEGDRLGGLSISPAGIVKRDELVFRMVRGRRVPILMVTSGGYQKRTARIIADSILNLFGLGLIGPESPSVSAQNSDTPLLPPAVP
T7 sequence (Q8WUI4 whole entry): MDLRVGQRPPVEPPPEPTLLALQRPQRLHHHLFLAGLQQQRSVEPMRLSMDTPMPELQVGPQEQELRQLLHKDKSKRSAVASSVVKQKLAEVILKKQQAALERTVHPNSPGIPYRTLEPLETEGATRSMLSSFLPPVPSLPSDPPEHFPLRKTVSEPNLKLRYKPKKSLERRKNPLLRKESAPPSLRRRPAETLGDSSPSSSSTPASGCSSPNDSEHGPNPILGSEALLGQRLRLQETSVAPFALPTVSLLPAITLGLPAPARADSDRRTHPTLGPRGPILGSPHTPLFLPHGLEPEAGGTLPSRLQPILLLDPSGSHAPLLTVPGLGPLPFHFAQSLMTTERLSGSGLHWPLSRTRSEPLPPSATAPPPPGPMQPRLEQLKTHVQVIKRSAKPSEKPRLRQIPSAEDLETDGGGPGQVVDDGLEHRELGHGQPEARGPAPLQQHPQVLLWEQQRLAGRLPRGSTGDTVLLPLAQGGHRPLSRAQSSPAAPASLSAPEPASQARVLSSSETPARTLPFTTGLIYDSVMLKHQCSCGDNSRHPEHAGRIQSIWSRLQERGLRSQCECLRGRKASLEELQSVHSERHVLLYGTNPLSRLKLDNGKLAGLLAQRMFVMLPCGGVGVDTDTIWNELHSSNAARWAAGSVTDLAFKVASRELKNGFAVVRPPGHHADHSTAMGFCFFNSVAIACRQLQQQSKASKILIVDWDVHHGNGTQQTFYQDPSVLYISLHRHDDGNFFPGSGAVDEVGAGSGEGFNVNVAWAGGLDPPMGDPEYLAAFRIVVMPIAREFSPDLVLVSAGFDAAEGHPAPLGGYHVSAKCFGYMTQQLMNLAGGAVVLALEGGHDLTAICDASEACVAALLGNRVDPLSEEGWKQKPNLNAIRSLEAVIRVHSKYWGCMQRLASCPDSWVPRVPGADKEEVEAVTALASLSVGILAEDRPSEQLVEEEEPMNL
T6 sequence (Q9UQL6 whole entry): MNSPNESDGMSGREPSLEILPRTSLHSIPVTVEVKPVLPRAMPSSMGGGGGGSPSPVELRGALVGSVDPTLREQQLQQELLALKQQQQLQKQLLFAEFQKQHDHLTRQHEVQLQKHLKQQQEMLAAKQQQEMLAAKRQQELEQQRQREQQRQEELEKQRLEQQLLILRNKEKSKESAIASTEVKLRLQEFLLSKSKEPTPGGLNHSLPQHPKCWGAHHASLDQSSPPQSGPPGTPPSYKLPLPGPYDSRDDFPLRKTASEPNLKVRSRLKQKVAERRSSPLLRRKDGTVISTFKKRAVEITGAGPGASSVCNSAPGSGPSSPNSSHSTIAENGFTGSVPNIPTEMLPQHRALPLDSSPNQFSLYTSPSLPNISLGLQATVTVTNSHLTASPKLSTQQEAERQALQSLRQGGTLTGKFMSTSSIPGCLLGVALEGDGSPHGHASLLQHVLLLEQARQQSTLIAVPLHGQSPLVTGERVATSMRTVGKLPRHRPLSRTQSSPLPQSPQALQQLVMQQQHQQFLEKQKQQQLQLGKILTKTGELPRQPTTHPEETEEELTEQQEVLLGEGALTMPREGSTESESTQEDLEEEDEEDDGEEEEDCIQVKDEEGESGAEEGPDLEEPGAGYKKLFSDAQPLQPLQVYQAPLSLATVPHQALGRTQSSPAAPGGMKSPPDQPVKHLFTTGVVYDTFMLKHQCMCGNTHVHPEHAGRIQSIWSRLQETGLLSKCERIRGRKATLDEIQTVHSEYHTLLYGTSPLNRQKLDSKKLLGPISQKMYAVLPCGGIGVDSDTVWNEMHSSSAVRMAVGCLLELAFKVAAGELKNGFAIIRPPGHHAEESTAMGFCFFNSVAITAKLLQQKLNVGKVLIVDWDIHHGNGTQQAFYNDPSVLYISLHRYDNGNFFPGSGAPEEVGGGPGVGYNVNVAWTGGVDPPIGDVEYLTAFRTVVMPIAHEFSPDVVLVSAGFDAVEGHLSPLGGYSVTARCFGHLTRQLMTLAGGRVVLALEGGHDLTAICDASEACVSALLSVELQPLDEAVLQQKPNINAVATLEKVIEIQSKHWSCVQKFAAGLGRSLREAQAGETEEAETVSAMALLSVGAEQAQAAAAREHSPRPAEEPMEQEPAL

Consider `CC[C@H](C(=O)Nc1ncc(C(=O)NO)s1)c1ccc(OC)cc1` [#1a, (S)—N-hydroxy-2-(2-(4-methoxyphenyl)butanamido)thiazole-5-carboxamide], for which the “Fold (1b/1a)” value in test [1] (ratio of IC50, HDAC1) turned out to be 7.8; in test [2] (ratio of IC50, HDAC10), 7.3; in test [3] (ratio of IC50, HDAC11), 0.73; in [4] (ratio of IC50, HDAC2) it was 6.9; in test [5] (ratio of IC50, HDAC3), 4.6; in test [6] (ratio of IC50, HDAC5) it was 1.4. The “Fold (1b/1a)” value amounted to 3.4 in test [7] (ratio of IC50, HDAC7); 3.1 in test [8] (ratio of IC50, HDAC8); 1.5 in test [10] (ratio of IC50, HDAC6). Moreover, the IC50 in [2] is 2 nM; in test [5], below 0.56 nM; in [10] it was 0.71 nM. For the same compound, in [9], the residence time stood at 1920 min. The “binding to HDAC6 (in words)” value in test [9] (HDAC6) was “very tightly bound inhibitor of HDAC6”. In [9] (HDAC6), the “increase in residence time compared to #1b” value is 55 fold.
In the case of `CC[C@@H](C(=O)Nc1ncc(C(=O)NO)s1)c1ccc(OC)cc1` [#1b, (R)—N-hydroxy-2-(2-(4-methoxyphenyl)butanamido)thiazole-5-carboxamide], the IC50 in [1] (HDAC1) is 7.8 nM; in test [2], 14.6 nM; in [3] (HDAC11), 4220 nM; in test [4] (HDAC2) it was 36.5 nM; in test [5] it was 2.6 nM; in [6] (HDAC5) it was 100 nM. Also, the IC50 in test [7] (HDAC7) worked out at 118 nM; in [8] (HDAC8), 416 nM; in [10], 1.1 nM. Besides, the residence time in test [9] was found to be 35 min.
